Assay results taken from PMC9887599, “Synthesis, Optical Properties, and Antiproliferative Evaluation of NBD-Triterpene Fluorescent Probes” (Journal of Natural Products, 2022).

Key:
B16-F10 murine melanoma = assay: MTT cell-viability assay, B16-F10; assay type: cell-based; conditions: Mus musculus, 72 h, untreated control cells as 100% viability
Method: (§1) The cytotoxic effects of 12 NBD-Aa-triterpene conjugates (1–12) were tested on three different cancer cell lines as a representation of cancers from different tissues and organs (B16-F10 murine melanoma, HT-29 human colon adenocarcinoma, and HepG2 human hepatocyte carcinoma). Cell viability was determined by MTT colorimetric analysis, with increasing concentration levels of each compound (0–200 μg/mL) and incubation for 72 h. The MTT assay was based on the metabolic reduction of 3-(4,5-dimethylthiazol-2-yl)-2,5-diphenyltetrazolium bromide (MTT) to a violet-colored compound (formazan), with a maximum absorbance at 570 nm. Cell viability was proportional to the amount of formazan and was expressed as the percentage of viable treated cells relative to untreated control cells. The concentration at which the derivatives halved the number of viable cells in the three cancer lines (IC50) was determined. […] These NBD conjugates of BO or BM also had higher IC50 values than their precursors (BO or BM), even in NBD conjugates with the shortest-chain ω-amino acid linker (6AHA) (Table 2). Due to these high IC50 values, all of these NBD-conjugated compounds were discarded for further cytometric studies.
(§2) The effect of the synthesized compounds on the viability of tumor cells was assessed using the MTT assay, based on the ability of living cells to metabolically reduce 3-(4,5-dimethylthiazole)-2,5-diphenyltetrazole bromide, rendering formazan, a colored compound with a maximum absorbance of 570 nm. To study the cytotoxic effects of the compounds in the three cancer cell lines, the different lines were seeded in 96-well plates at a cell density per well of 5 × 10^3 for B16-F10, 6 × 10^3 for HT-29, and 15 × 10^3 for HepG2. After seeding, the plates were grown for 24 h and subsequently treated in triplicate with different compounds at different concentrations (0–200 μg/mL) for 72 h. After this time, the cells were stained by adding […] of MTT (0.5 mg/mL) per well and incubated for 1 h. Subsequently, the cells were washed with phosphate-buffered saline (PBS), and formazan was resuspended in 100 μL of DMSO per well. Cell viability was measured by absorbance at 550 nm in an ELISA plate reader (Tecan Sunrise MR20–301, TECAN, Austria).
(§3) For this, Sigmaplot 12.5 software was used, and all quantitative data were expressed as means ± standard deviation (SD). All data shown are representative of at least two independent experiments performed in triplicate.

[1] = tested on: HT-29 human colon adenocarcinoma; assay: MTT cell-viability assay, HT-29; assay type: cell-based; conditions: 72 h, untreated control cells as 100% viability
Method: as §1, §2, §3

[2] = tested on: HepG2 human hepatocyte carcinoma; assay: MTT cell-viability assay, HepG2; assay type: cell-based; conditions: 72 h, untreated control cells as 100% viability
Method: as §1, §2, §3

[3] = tested on: B16-F10, HT-29, and HepG2; assay: MTT cell-viability assay, summary over the three cancer cell lines; assay type: cell-based, mouse, human; conditions: 72 h, stated as holding in most cases, read-out: IC50 concentrations over the three cancer cell lines, in most cases
Method: as §1, §2, §3

[4] = Absorption and fluorescence spectroscopy (photophysical data); assay type: physicochemical; conditions: DMSO, 25 °C; for τ (half-life time of fluorescence): 485 nm pulsed LED; for Φ (fluorescence quantum yield): Coumarin 6 as standard; for (λem)max: excitation at 480 nm

SMILES | IC50 (B16-F10 murine melanoma) | IC50 [1] | IC50 [3] | (λabs)max [4] | ε (molar extinction coefficient) [4] | τ (half-life time of fluorescence) [4] | Φ (fluorescence quantum yield) [4] | (λem)max [4] | IC50 [2]
CC1(C)CC[C@]2(C(=O)O)CC[C@]3(C)C(=CC[C@@H]4[C@@]5(C)CC[C@H](O)C(C)(C)[C@@H]5CC[C@]43C)[C@@H]2C1 [OA, 3β-hydroxyolean-12-en-28-oic acid, reference compound] | 106 ± 3.7 µM | 429.9 ± 0.7 µM |  |  |  |  |  |  | 211.8 ± 0.5 µM
CC1(C)CC[C@]2(C(=O)O)CC[C@]3(C)C(=CC[C@@H]4[C@@]5(C)C[C@@H](OC(=O)CCCCCCCCCCNc6ccc([N+](=O)[O-])c7nonc67)[C@H](O)C(C)(C)[C@@H]5CC[C@]43C)[C@@H]2C1 [Compound 10, 3β-Hydroxy-2α-((11-((7-nitrobenzo[c][1,2,5]oxadiazol-4-yl)amino)undecanoyl)oxy)olean-12-en-28-oic Acid] | 107.7 ± 0.4 µM | 110 ± 5.2 µM | > 50 µM | 481 nm | 1199 M^–1 cm^–1 | 7.153 ns | 0.45 | 546 nm | 122.8 ± 0.9 µM
CC1(C)CC[C@]2(C(=O)OCc3ccccc3)CC[C@]3(C)C(=CC[C@@H]4[C@@]5(C)C[C@@H](O)[C@H](O)C(C)(C)[C@@H]5CC[C@]43C)[C@@H]2C1 [BM, 28-benzyl maslinate, reference compound] | 19 ± 0.2 µM | 15.3 ± 0.5 µM |  |  |  |  |  |  | 17 µM
CC1(C)CC[C@]2(C(=O)O)CC[C@]3(C)C(=CC[C@@H]4[C@@]5(C)CC[C@H](OC(=O)CCCCCCCCCCNc6ccc([N+](=O)[O-])c7nonc67)C(C)(C)[C@@H]5CC[C@]43C)[C@@H]2C1 [Compound 9, 3β-((11-((7-Nitrobenzo[c][1,2,5]oxadiazol-4-yl)amino)undecanoyl)oxy)olean-12-en-28-oic Acid] | 101.1 ± 0.9 µM | 113 ± 4.4 µM | > 50 µM | 481 nm | 1015 M^–1 cm^–1 | 7.635 ns | 0.71 | 546 nm | 84.5 ± 0.4 µM
CC1(C)CC[C@]2(C(=O)OCc3ccccc3)CC[C@]3(C)C(=CC[C@@H]4[C@@]5(C)C[C@@H](OC(=O)CCCCCCCCCCNc6ccc([N+](=O)[O-])c7nonc67)[C@H](O)C(C)(C)[C@@H]5CC[C@]43C)[C@@H]2C1 [Compound 12] | 80.8 ± 0.9 µM | 108 ± 3.8 µM | > 80 µM | 480 nm | 2710 M^–1 cm^–1 | 7.633 ns | 0.46 | 546 nm | 80.9 ± 1.1 µM
CC1(C)CC[C@]2(C(=O)O)CC[C@]3(C)C(=CC[C@@H]4[C@@]5(C)CC[C@H](OC(=O)CCCCCCCNc6ccc([N+](=O)[O-])c7nonc67)C(C)(C)[C@@H]5CC[C@]43C)[C@@H]2C1 [Compound 5, 3β-((8-((7-Nitrobenzo[c][1,2,5]oxadiazol-4-yl)amino)octanoyl)oxy)olean-12-en-28-oic Acid] | 137 ± 2 µM | 105 ± 1.2 µM | > 50 µM | 480 nm | 1144 M^–1 cm^–1 | 7.654 ns | 0.73 | 545 nm | 95.7 ± 3.4 µM
CC1(C)CC[C@]2(C(=O)O)CC[C@]3(C)C(=CC[C@@H]4[C@@]5(C)C[C@@H](O)[C@H](O)C(C)(C)[C@@H]5CC[C@]43C)[C@@H]2C1 [MA, 2α,3β-dihydroxyolean-12-en-28-oic acid, reference compound] | 36.2 ± 2.5 µM | 32.2 ± 3.8 µM |  |  |  |  |  |  | 99.2 ± 5.5 µM
CC1(C)CC[C@]2(C(=O)OCc3ccccc3)CC[C@]3(C)C(=CC[C@@H]4[C@@]5(C)CC[C@H](O)C(C)(C)[C@@H]5CC[C@]43C)[C@@H]2C1 [BO, 28-benzyl oleanolate, reference compound] | 52.2 ± 0.9 µM | 67.1 ± 3.2 µM |  |  |  |  |  |  | 38.7 ± 1.7 µM

Continued, in another order:

IC50 (B16-F10 murine melanoma) | IC50 [1] | IC50 [3] | (λabs)max [4] | ε (molar extinction coefficient) [4] | τ (half-life time of fluorescence) [4] | Φ (fluorescence quantum yield) [4] | (λem)max [4] | SMILES | IC50 [2]
96.4 ± 0.9 µM | 121 ± 4 µM | > 80 µM | 480 nm | 1338 M^–1 cm^–1 | 7.650 ns | 0.72 | 545 nm | CC1(C)CC[C@]2(C(=O)OCc3ccccc3)CC[C@]3(C)C(=CC[C@@H]4[C@@]5(C)C[C@@H](OC(=O)CCCCCNc6ccc([N+](=O)[O-])c7nonc67)[C@H](O)C(C)(C)[C@@H]5CC[C@]43C)[C@@H]2C1 [Compound 4, Benzyl 3β-Hydroxy-2α-((6-((7-nitrobenzo[c][1,2,5]oxadiazol-4-yl)amino)hexanoyl)oxy)olean-12-en-28-oate] | 91.2 ± 2.3 µM
74.2 ± 2.2 µM | 95.9 ± 2.2 µM | > 80 µM | 480 nm | 2645 M^–1 cm^–1 | 7.724 ns | 0.71 | 547 nm | CC1(C)CC[C@]2(C(=O)OCc3ccccc3)CC[C@]3(C)C(=CC[C@@H]4[C@@]5(C)CC[C@H](OC(=O)CCCCCCCNc6ccc([N+](=O)[O-])c7nonc67)C(C)(C)[C@@H]5CC[C@]43C)[C@@H]2C1 [Compound 7, Benzyl 3β-((8-((7-Nitrobenzo[c][1,2,5]oxadiazol-4-yl)amino)octanoyl)oxy)olean-12-en-28-oate] | 71.6 ± 1.7 µM
92.3 ± 1.5 µM | 101 ± 1.1 µM | > 80 µM | 480 nm | 2718 M^–1 cm^–1 | 7.645 ns | 0.49 | 546 nm | CC1(C)CC[C@]2(C(=O)OCc3ccccc3)CC[C@]3(C)C(=CC[C@@H]4[C@@]5(C)CC[C@H](OC(=O)CCCCCCCCCCNc6ccc([N+](=O)[O-])c7nonc67)C(C)(C)[C@@H]5CC[C@]43C)[C@@H]2C1 [Compound 11] | 82.7 ± 2.5 µM
96.8 ± 1.8 µM | 123 ± 1.7 µM | > 80 µM | 481 nm | 3358 M^–1 cm^–1 | 7.639 ns | 0.59 | 548 nm | CC1(C)CC[C@]2(C(=O)OCc3ccccc3)CC[C@]3(C)C(=CC[C@@H]4[C@@]5(C)C[C@@H](OC(=O)CCCCCCCNc6ccc([N+](=O)[O-])c7nonc67)[C@H](O)C(C)(C)[C@@H]5CC[C@]43C)[C@@H]2C1 [Compound 8, Benzyl 3β-Hydroxy-2α-((8-((7-nitrobenzo[c][1,2,5]oxadiazol-4-yl)amino)octanoyl)oxy)olean-12-en-28-oate] | 95.3 ± 0.7 µM
76.6 ± 3.7 µM | 63.3 ± 2.4 µM | > 80 µM | 480 nm | 4035 M^–1 cm^–1 | 7.761 ns | 0.67 | 545 nm | CC1(C)CC[C@]2(C(=O)OCc3ccccc3)CC[C@]3(C)C(=CC[C@@H]4[C@@]5(C)CC[C@H](OC(=O)CCCCCNc6ccc([N+](=O)[O-])c7nonc67)C(C)(C)[C@@H]5CC[C@]43C)[C@@H]2C1 [Compound 3, Benzyl 3β-((6-((7-Nitrobenzo[C][1,2,5]oxadiazol-4-yl)amino)hexanoyl)oxy)olean-12-en-28-oate] | 74.3 ± 0.7 µM
